These compounds were tested on lambsquarters (assay: Test Example 4: herbicidal effect by soil treatment (Table 19, symbol O)). Settings: amount of applied herbicide 320 g/ha.
Format: in vivo, lambsquarters (Chenopodium album)
Procedure, shortened: (§1)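 Herbicidal effect was rated 3 weeks after treatment, using the scoring criteria of an earlier test. The compound, formulated as an emulsion and diluted in water to a set herbicide amount, had been sprayed uniformly on soil over freshly sown seeds. Growth took place in a greenhouse at 25° C. to 30° C.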

Compound	O: lambsquarters, herbicidal effect grade
COc1ccccc1-c1sc2cc(F)ccc2c1-c1c(OS(=O)(=O)N(C)C)c(C)nn(C)c1=O [3-028]	0 (Herbicidal rate of 5% or less (almost no effect))
CCCC(=O)Oc1c(C)nn(C)c(=O)c1-c1c(-c2ccc(Cl)cc2)sc2cc(Cl)ccc12 [3-034]	0 (Herbicidal rate of 5% or less (almost no effect))

Each compound was assayed on rice flat sedge (assay: Test Example 3: herbicidal effect by foliage application, Wagner pot (Table 18, symbol E)). Settings: 320 g/ha.
Format: in vivo, rice flat sedge (Cyperus iria)
Procedure, shortened: (§2)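 Plants were sown in alluvial soil held under 0.1–0.5 cm standing water and grown 14 days in a greenhouse at 25–30 °C. An emulsifiable formulation, water-diluted to the set dose, was then sprayed onto the foliage, and effects were scored three weeks later using previously defined criteria.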

Compound	herbicidal effect on rice flat sedge (E)
CCCC(=O)Oc1c(C)nn(C)c(=O)c1-c1c(-c2ccc(Cl)cc2)sc2cc(Cl)ccc12 [3-034]	5 (Herbicidal rate of 90% or more (almost completely withered))

Same assay, conditions: amount of applied herbicide 320 g/ha

Compound	herbicidal effect on E: rice flat sedge
COc1ccccc1-c1sc2cc(F)ccc2c1-c1c(OS(=O)(=O)N(C)C)c(C)nn(C)c1=O [3-028]	5 (Herbicidal rate of 90% or more (almost completely withered))

Each compound was assayed on Italian ryegrass (assay: Test Example 5: herbicidal effect by foliage application, plastic box (Table 20, symbol K)). Settings: foliage application, 320 g/ha, three weeks after application.
Format: in vivo, Italian ryegrass (Lolium multiflorum)
Procedure, shortened: (§3)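 Foliar spray test: emulsion formulation diluted in water to a set application rate, sprayed onto 14-day-old plants raised in diluvial soil at 25° C to 30° C under glass. Both herbicidal effect and crop effect rated visually three weeks later.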

Compound	K: Italian ryegrass, herbicidal effect grade
COc1ccccc1-c1sc2cc(F)ccc2c1-c1c(OS(=O)(=O)N(C)C)c(C)nn(C)c1=O [3-028]	4 (Herbicidal rate of 70% or more and less than 90%)
CCCC(=O)Oc1c(C)nn(C)c(=O)c1-c1c(-c2ccc(Cl)cc2)sc2cc(Cl)ccc12 [3-034]	4 (Herbicidal rate of 70% or more and less than 90%)

Each compound was assayed on Japanese bulrush (assay: Test Example 2: herbicidal activity, application during weed generation under submerged conditions (Table 17, symbol B)). Settings: AAH 320 g/ha; application during weed generation, submerged conditions.
Format: in vivo, Japanese bulrush (Schoenoplectus juncoides)
Procedure, shortened: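 In this pot test, flooded alluvial soil (water depth 4 cm) holds all three species sown as a mixture. Once seedlings have one to two leaves, the compound's emulsion, thinned with water to the intended dose, is poured on the water; grading follows after three weeks on the earlier criteria.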

Compound	herbicidal effect rating, B: Japanese bulrush
COc1ccccc1-c1sc2cc(F)ccc2c1-c1c(OS(=O)(=O)N(C)C)c(C)nn(C)c1=O [3-028]	0 (Herbicidal rate of 5% or less (almost no effect))
CCCC(=O)Oc1c(C)nn(C)c(=O)c1-c1c(-c2ccc(Cl)cc2)sc2cc(Cl)ccc12 [3-034]	0 (Herbicidal rate of 5% or less (almost no effect))

Each compound was assayed on blackgrass (assay: Test Example 5: herbicidal effect by foliage application, plastic box (Table 20, symbol J)). Settings: foliage application, 320 g/ha, three weeks after application.
Format: in vivo, blackgrass (Alopecurus myosuroides)
Procedure, shortened: as §3

Compound	J: blackgrass, herbicidal effect grade
COc1ccccc1-c1sc2cc(F)ccc2c1-c1c(OS(=O)(=O)N(C)C)c(C)nn(C)c1=O [3-028]	4 (Herbicidal rate of 70% or more and less than 90%)
CCCC(=O)Oc1c(C)nn(C)c(=O)c1-c1c(-c2ccc(Cl)cc2)sc2cc(Cl)ccc12 [3-034]	4 (Herbicidal rate of 70% or more and less than 90%)

These compounds were tested on velvetleaf (assay: Test Example 5: herbicidal effect by foliage application, plastic box (Table 20, symbol M)). Settings: foliage application, 320 g/ha, three weeks after application.
Format: in vivo, velvetleaf (Abutilon theophrasti)
Procedure, shortened: as §3

Compound	M: velvetleaf, herbicidal effect grade
COc1ccccc1-c1sc2cc(F)ccc2c1-c1c(OS(=O)(=O)N(C)C)c(C)nn(C)c1=O [3-028]	4 (Herbicidal rate of 70% or more and less than 90%)
CCCC(=O)Oc1c(C)nn(C)c(=O)c1-c1c(-c2ccc(Cl)cc2)sc2cc(Cl)ccc12 [3-034]	4 (Herbicidal rate of 70% or more and less than 90%)

What follows are compounds tested on lambsquarters (assay: Test Example 5: herbicidal effect by foliage application, plastic box (Table 20, symbol O)). Settings: foliage application, 320 g/ha, three weeks after application.
Format: in vivo, lambsquarters (Chenopodium album)
Procedure, shortened: as §3

Compound	O: lambsquarters, herbicidal effect grade
COc1ccccc1-c1sc2cc(F)ccc2c1-c1c(OS(=O)(=O)N(C)C)c(C)nn(C)c1=O [3-028]	2 (Herbicidal rate of 20% or more and less than 40%)
CCCC(=O)Oc1c(C)nn(C)c(=O)c1-c1c(-c2ccc(Cl)cc2)sc2cc(Cl)ccc12 [3-034]	4 (Herbicidal rate of 70% or more and less than 90%)

The compounds below were run on green foxtail (assay: Test Example 4: herbicidal effect by soil treatment (Table 19, symbol G)). Settings: amount of applied herbicide 320 g/ha.
Format: in vivo, green foxtail (Setaria viridis)
Procedure, shortened: as §1

Compound	G: green foxtail, herbicidal effect grade
COc1ccccc1-c1sc2cc(F)ccc2c1-c1c(OS(=O)(=O)N(C)C)c(C)nn(C)c1=O [3-028]	0 (Herbicidal rate of 5% or less (almost no effect))
CCCC(=O)Oc1c(C)nn(C)c(=O)c1-c1c(-c2ccc(Cl)cc2)sc2cc(Cl)ccc12 [3-034]	0 (Herbicidal rate of 5% or less (almost no effect))

What follows are compounds tested on Chinese sprangletop (assay: Test Example 3: herbicidal effect by foliage application, Wagner pot (Table 18, symbol D)). Settings: 320 g/ha.
Format: in vivo, chinese sprangletop (Leptochloa chinensis)
Procedure, shortened: as §2

Compound	herbicidal effect on Chinese sprangletop (D)
CCCC(=O)Oc1c(C)nn(C)c(=O)c1-c1c(-c2ccc(Cl)cc2)sc2cc(Cl)ccc12 [3-034]	4 (Herbicidal rate of 70% or more and less than 90%)

Same assay, conditions: amount of applied herbicide 320 g/ha

Compound	herbicidal effect on D: Chinese sprangletop
COc1ccccc1-c1sc2cc(F)ccc2c1-c1c(OS(=O)(=O)N(C)C)c(C)nn(C)c1=O [3-028]	3 (Herbicidal rate of 40% or more and less than 70%)

Each compound was assayed on blackgrass (assay: Test Example 4: herbicidal effect by soil treatment (Table 19, symbol J)). Settings: amount of applied herbicide 320 g/ha.
Format: in vivo, blackgrass (Alopecurus myosuroides)
Procedure, shortened: as §1

Compound	J: blackgrass, herbicidal effect grade
COc1ccccc1-c1sc2cc(F)ccc2c1-c1c(OS(=O)(=O)N(C)C)c(C)nn(C)c1=O [3-028]	0 (Herbicidal rate of 5% or less (almost no effect))
CCCC(=O)Oc1c(C)nn(C)c(=O)c1-c1c(-c2ccc(Cl)cc2)sc2cc(Cl)ccc12 [3-034]	0 (Herbicidal rate of 5% or less (almost no effect))

These compounds were tested on Italian ryegrass (assay: Test Example 4: herbicidal effect by soil treatment (Table 19, symbol K)). Settings: amount of applied herbicide 320 g/ha.
Format: in vivo, Italian ryegrass (Lolium multiflorum)
Procedure, shortened: as §1

Compound	K: Italian ryegrass, herbicidal effect grade
COc1ccccc1-c1sc2cc(F)ccc2c1-c1c(OS(=O)(=O)N(C)C)c(C)nn(C)c1=O [3-028]	0 (Herbicidal rate of 5% or less (almost no effect))
CCCC(=O)Oc1c(C)nn(C)c(=O)c1-c1c(-c2ccc(Cl)cc2)sc2cc(Cl)ccc12 [3-034]	1 (Herbicidal rate of 5% or more and less than 20%)

Each compound was assayed on wild oat (assay: Test Example 5: herbicidal effect by foliage application, plastic box (Table 20, symbol I)). Settings: foliage application, 320 g/ha, three weeks after application.
Format: in vivo, wild oat (Avena fatua)
Procedure, shortened: as §3

Compound	I: wild oat, herbicidal effect grade
COc1ccccc1-c1sc2cc(F)ccc2c1-c1c(OS(=O)(=O)N(C)C)c(C)nn(C)c1=O [3-028]	0 (Herbicidal rate of 5% or less (almost no effect))
CCCC(=O)Oc1c(C)nn(C)c(=O)c1-c1c(-c2ccc(Cl)cc2)sc2cc(Cl)ccc12 [3-034]	3 (Herbicidal rate of 40% or more and less than 70%)

What follows are compounds tested on barnyard grass (assay: Test Example 5: herbicidal effect by foliage application, plastic box (Table 20, symbol H)). Settings: foliage application, 320 g/ha, three weeks after application.
Format: in vivo, barnyard grass (Echinochloa crus-galli)
Procedure, shortened: as §3

Compound	H: barnyard grass, herbicidal effect grade
COc1ccccc1-c1sc2cc(F)ccc2c1-c1c(OS(=O)(=O)N(C)C)c(C)nn(C)c1=O [3-028]	2 (Herbicidal rate of 20% or more and less than 40%)
CCCC(=O)Oc1c(C)nn(C)c(=O)c1-c1c(-c2ccc(Cl)cc2)sc2cc(Cl)ccc12 [3-034]	3 (Herbicidal rate of 40% or more and less than 70%)

These compounds were tested on barnyard grass (assay: Test Example 4: herbicidal effect by soil treatment (Table 19, symbol H)). Settings: amount of applied herbicide 320 g/ha.
Format: in vivo, barnyard grass (Echinochloa crus-galli)
Procedure, shortened: as §1

Compound	H: barnyard grass, herbicidal effect grade
COc1ccccc1-c1sc2cc(F)ccc2c1-c1c(OS(=O)(=O)N(C)C)c(C)nn(C)c1=O [3-028]	0 (Herbicidal rate of 5% or less (almost no effect))
CCCC(=O)Oc1c(C)nn(C)c(=O)c1-c1c(-c2ccc(Cl)cc2)sc2cc(Cl)ccc12 [3-034]	0 (Herbicidal rate of 5% or less (almost no effect))

What follows are compounds tested on windgrass (assay: Test Example 5: herbicidal effect by foliage application, plastic box (Table 20, symbol L)). Settings: foliage application, 320 g/ha, three weeks after application.
Format: in vivo, windgrass (Apera spica-venti)
Procedure, shortened: as §3

Compound	L: windgrass, herbicidal effect grade
COc1ccccc1-c1sc2cc(F)ccc2c1-c1c(OS(=O)(=O)N(C)C)c(C)nn(C)c1=O [3-028]	5 (Herbicidal rate of 90% or more (almost completely withered))
CCCC(=O)Oc1c(C)nn(C)c(=O)c1-c1c(-c2ccc(Cl)cc2)sc2cc(Cl)ccc12 [3-034]	5 (Herbicidal rate of 90% or more (almost completely withered))

The compounds below were run on persian speedwell (assay: Test Example 5: herbicidal effect by foliage application, plastic box (Table 20, symbol R)). Settings: foliage application, 320 g/ha, three weeks after application.
Format: in vivo, Persian speedwell (Veronica persica)
Procedure, shortened: as §3

Compound	R: persian speedwell, herbicidal effect grade
COc1ccccc1-c1sc2cc(F)ccc2c1-c1c(OS(=O)(=O)N(C)C)c(C)nn(C)c1=O [3-028]	0 (Herbicidal rate of 5% or less (almost no effect))
CCCC(=O)Oc1c(C)nn(C)c(=O)c1-c1c(-c2ccc(Cl)cc2)sc2cc(Cl)ccc12 [3-034]	5 (Herbicidal rate of 90% or more (almost completely withered))

The compounds below were run on chickweed (assay: Test Example 5: herbicidal effect by foliage application, plastic box (Table 20, symbol P)). Settings: foliage application, 320 g/ha, three weeks after application.
Format: in vivo, common chickweed (Stellaria media)
Procedure, shortened: as §3

Compound	P: chickweed, herbicidal effect grade
COc1ccccc1-c1sc2cc(F)ccc2c1-c1c(OS(=O)(=O)N(C)C)c(C)nn(C)c1=O [3-028]	5 (Herbicidal rate of 90% or more (almost completely withered))
CCCC(=O)Oc1c(C)nn(C)c(=O)c1-c1c(-c2ccc(Cl)cc2)sc2cc(Cl)ccc12 [3-034]	5 (Herbicidal rate of 90% or more (almost completely withered))

From patent US20230085307A1, “PYRIDAZINONE COMPOUND AND HERBICIDE” (NISSAN CHEMICAL CORPORATION, priority 2019, published 2023)
